How the values were obtained:
[1] = target: T1, Growth hormone secretagogue receptor type 1 (Homo sapiens, UniProt Q92847); assay: Agonist activity at GHSR relative to full agonist; type: functional
[2] = target: T1, Growth hormone secretagogue receptor type 1; assay: Agonist activity at GHSR; type: functional
[3] = target: T1, Growth hormone secretagogue receptor type 1; assay: Binding affinity to GHSR

T1 sequence (Q92847 whole entry): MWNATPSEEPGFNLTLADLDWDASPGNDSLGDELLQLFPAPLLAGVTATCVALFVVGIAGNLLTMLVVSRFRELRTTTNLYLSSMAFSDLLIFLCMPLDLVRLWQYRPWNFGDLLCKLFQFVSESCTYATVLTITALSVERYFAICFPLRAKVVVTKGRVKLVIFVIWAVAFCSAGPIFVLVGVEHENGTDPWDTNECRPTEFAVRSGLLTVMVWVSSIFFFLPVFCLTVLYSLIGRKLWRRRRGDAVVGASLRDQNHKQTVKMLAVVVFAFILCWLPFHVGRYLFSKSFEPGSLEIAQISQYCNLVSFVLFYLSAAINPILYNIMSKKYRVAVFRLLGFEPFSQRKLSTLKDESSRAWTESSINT

SMILES	Activity [1] [%]	EC50 [2] [nM]	Ki [3] [nM]
CC(Oc1cccc(Cl)c1)C(=O)N(Cc1ccccc1)C[C@H]1CCCN1 (stereo partly specified)	80	7	300
CC(=O)Nc1cccc(N(C[C@H]2CCCN2)C(=O)C(C)Oc2ccccc2)c1 (stereo partly specified)	80	1000	
CC(Oc1cccc(Cl)c1)C(=O)N(C[C@H]1CCCN1)c1cccc(Cl)c1 (stereo partly specified)	110	40	
CC(=O)Nc1ccc(N(C[C@H]2CCCN2)C(=O)C(C)Oc2ccccc2Cl)cc1 (stereo partly specified)	90	50	
C[C@@H](Oc1cccc(Cl)c1)C(=O)N(Cc1ccccc1)C[C@H]1CCCN1	100	1500	≥ 10000
CC(Oc1ccccc1)C(=O)N(Cc1ccccc1)C[C@H]1CCCN1 (stereo partly specified)		90	
CCC(Oc1ccccc1)C(=O)N(Cc1ccccc1)C[C@H]1CCCN1 (stereo partly specified)		900	
CC(=O)Nc1ccc(N(C[C@H]2CCCN2)C(=O)COc2ccccc2)cc1		2000	
CC(Oc1ccccc1Cl)C(=O)N(Cc1ccccc1)C[C@H]1CCCN1 (stereo partly specified)	60	20	
CCC(Oc1ccccc1)C(=O)N(C[C@H]1CCCN1)c1cccc(OC)c1 (stereo partly specified)		> 10000	
CC(Oc1cccc(Cl)c1)C(=O)N(Cc1ccc(Cl)cc1)C[C@H]1CCCN1 (stereo partly specified)	90	30	
CC(Oc1ccccc1)C(=O)N(Cc1cccc(Cl)c1)C[C@H]1CCCN1 (stereo partly specified)	80	50	
Cc1ccccc1CN(C[C@H]1CCCN1)C(=O)[C@H](C)Oc1cccc(Cl)c1	90	2	30
CCC(Oc1ccccc1)C(=O)N(C[C@H]1CCCN1)c1ccc(NC(C)=O)cc1 (stereo partly specified)		4000	
Cc1cccc(CN(C[C@H]2CCCN2)C(=O)C(C)Oc2cccc(Cl)c2)c1 (stereo partly specified)	20	120	
CC(Oc1cccc(Cl)c1)C(=O)N(Cc1cccc(Cl)c1)C[C@H]1CCCN1 (stereo partly specified)	70	20	
CC(Oc1ccccc1Cl)C(=O)N(C[C@H]1CCCN1)c1ccc(Cl)cc1 (stereo partly specified)		≥ 10000	
CC(Oc1ccccc1)C(=O)N(C[C@H]1CCCN1)c1cccc(Cl)c1 (stereo partly specified)	110	90	
CC(Oc1ccccc1Cl)C(=O)N(C[C@H]1CCCN1)c1ccccc1Cl (stereo partly specified)		≥ 10000	

SMILES	Activity [1] [%]	EC50 [2] [nM]	Ki [3] [nM]
Cc1ccccc1CN(C[C@H]1CCCN1)C(=O)C(C)Oc1ccccc1 (stereo partly specified)	110	40	
CC(Oc1ccccc1)C(=O)N(C[C@H]1CCCN1)c1ccc(CC#N)cc1 (stereo partly specified)		9000	
Cc1cccc(CN(C[C@H]2CCCN2)C(=O)C(C)Oc2ccccc2)c1 (stereo partly specified)	90	80	
CC(Oc1ccccc1Cl)C(=O)N(C[C@H]1CCCN1)c1cccc(Cl)c1 (stereo partly specified)	60	250	
CC(Oc1ccccc1)C(=O)N(C[C@H]1CCCN1)c1ccccc1Cl (stereo partly specified)	80	1260	
CC(=O)Nc1ccc(N(C[C@H]2CCCN2)C(=O)[C@@H](C)Oc2cccc(Cl)c2)cc1	100	1200	≥ 10000
CC(Oc1cccc(Cl)c1)C(=O)N(C[C@H]1CCCN1)c1ccccc1Cl (stereo partly specified)	70	780	
C[C@H](Oc1cccc(Cl)c1)C(=O)N(Cc1ccccc1)C[C@H]1CCCN1	90	4	30
CC(=O)Nc1ccc(N(C[C@H]2CCCN2)C(=O)[C@H](C)Oc2cccc(Cl)c2)cc1	100	20	250
O=C(COc1ccccc1)N(C[C@H]1CCCN1)c1ccccc1		> 10000	
CC(Oc1ccccc1)C(=O)N(Cc1ccccc1Cl)C[C@H]1CCCN1 (stereo partly specified)	100	150	
Cc1ccccc1CN(C[C@H]1CCCN1)C(=O)C(C)Oc1ccccc1Cl (stereo partly specified)	90	140	
CC(=O)Nc1ccc(N(C[C@H]2CCCN2)C(=O)C(C)Oc2cccc(Cl)c2)cc1 (stereo partly specified)	90	30	260
COc1cccc(N(C[C@H]2CCCN2)C(=O)COc2ccccc2)c1		> 10000	
CC(Oc1ccccc1)C(=O)N(Cc1ccc(Cl)cc1)C[C@H]1CCCN1 (stereo partly specified)	80	220	
CCC(Oc1ccccc1)C(=O)N(C[C@H]1CCCN1)c1cccc(SC)c1 (stereo partly specified)		> 10000	
CC(Oc1ccccc1)C(=O)N(C[C@H]1CCCN1)c1ccccc1 (stereo partly specified)		440	
CC(Oc1ccccc1Cl)C(=O)N(Cc1ccc(Cl)cc1)C[C@H]1CCCN1 (stereo partly specified)	80	60	
CC(Oc1cccc(Cl)c1)C(=O)N(Cc1ccccc1Cl)C[C@H]1CCCN1 (stereo partly specified)	80	40	

SMILES	Activity [1] [%]	EC50 [2] [nM]	Ki [3] [nM]
CC(Oc1ccccc1Cl)C(=O)N(C[C@H]1CCCN1)c1ccccc1 (stereo partly specified)		≥ 10000	
CC(Oc1ccccc1)C(=O)N(C[C@H]1CCCN1)c1ccc(Cl)cc1 (stereo partly specified)	80	600	
O=C(COc1ccccc1)N(Cc1ccccc1)C[C@H]1CCCN1		> 10000	
CC(Oc1ccccc1Cl)C(=O)N(Cc1ccccc1Cl)C[C@H]1CCCN1 (stereo partly specified)	60	260	
Cc1ccccc1CN(C[C@H]1CCCN1)C(=O)[C@@H](C)Oc1cccc(Cl)c1	90	180	2200
COc1c(-c2ccccc2)cccc1N(C[C@H]1CCCN1)C(=O)COc1ccccc1		5000	
CC(Oc1cccc(Cl)c1)C(=O)N(C[C@H]1CCCN1)c1ccc(Cl)cc1 (stereo partly specified)	90	120	
CSc1cccc(N(C[C@H]2CCCN2)C(=O)C(C)Oc2ccccc2)c1 (stereo partly specified)		2000	
CCC(Oc1ccccc1)C(=O)N(C[C@H]1CCCN1)c1cccc(-c2ccccc2)c1OC (stereo partly specified)		2000	
COc1cccc(N(C[C@H]2CCCN2)C(=O)C(C)Oc2ccccc2)c1 (stereo partly specified)		4000	
CC(Oc1cccc(Cl)c1)C(=O)N(C[C@H]1CCCN1)c1ccccc1 (stereo partly specified)	60	120	
Cc1ccccc1CN(C[C@H]1CCCN1)C(=O)C(C)Oc1cccc(Cl)c1 (stereo partly specified)	100	3	100
CC(Oc1ccccc1Cl)C(=O)N(Cc1cccc(Cl)c1)C[C@H]1CCCN1 (stereo partly specified)	90	10	
Cc1cccc(CN(C[C@H]2CCCN2)C(=O)C(C)Oc2ccccc2Cl)c1 (stereo partly specified)	70	90	
CC(=O)Nc1cccc(N(C[C@H]2CCCN2)C(=O)C(C)Oc2cccc(Cl)c2)c1 (stereo partly specified)	60	140	
CC(=O)Nc1ccc(N(C[C@H]2CCCN2)C(=O)C(C)Oc2ccccc2)cc1 (stereo partly specified)		330	
CC(=O)Nc1cccc(N(C[C@H]2CCCN2)C(=O)C(C)Oc2ccccc2Cl)c1 (stereo partly specified)	70	200	
CCC(Oc1ccccc1)C(=O)N(C[C@H]1CCCN1)c1ccc(CC#N)cc1 (stereo partly specified)		14000	

Reference: ChEMBL document CHEMBL1144160, “Discovery and optimization of (R)-prolinol-derived agonists of the Growth Hormone Secretagogue receptor (GHSR)” (Bioorg Med Chem Lett, 2008)
